The test system of test [1] is LL/2 lung cancer tumor endothelial cells. Kind of test: Lung LL2 ex vivo model of tumor angiogenesis. In kind it is cell-based, mouse. The settings on record: for 48 hrs (morphology observations): LL/2 tumor endothelial cells; for Cell death: drug treatment for two days, ratio of red area to total endothelial cell area. Put shortly: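 LL2 mouse tumor fragments (~0.075 mm³) embedded in Matrigel and cultured in endothelial growth medium at 37 °C until endothelial outgrowth (~4 days) before treatment. Cell death assessed e.g. 48 h after drug by fluorescein diacetate (live)/propidium iodide (dead) staining and red/green fluorescence imaging.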

The test system of test [2] is CT26.CL25 colon cancer tumor endothelial cells. The experiment in a line: Colon CT26 ex vivo model of tumor angiogenesis. The test is classed as cell-based, mouse. The settings on record: for cytotoxicity at 40 µM / cytotoxicity at 10 µM: Mus musculus, Endothelial cell, 48 h, read-out: Cell death. The procedure: An ex vivo tumor angiogenesis model was developed to test the efficacy of anti-cancer candidate agents. The following protocol describes the Ex Vivo Tumor Angiogenesis Model.
• 1. The day before the experiment, all necessary tools were sprayed with 70% ethanol and sterilized under UV light overnight, including blade, dissecting and micro-dissecting scissors and […]. 24-well dishes were placed at 4° C. to pre-chill plates and Matrigel was thawed, 24 hours before tumor dissection. • 2. 70% ethanol was sprayed on working bench. Two sterile petri dishes were prepared with 10 ml sterile PBS. The following steps 3 and 4 are necessary for mouse tumor models. For fresh human tumor, steps 3 and 4 are skipped. • 3. The tumor-bearing mice were euthanized. 70% ethanol was sprayed on the mouse and the tumor was removed using sterilized dissecting tools (avoid the fur). The tumor was rinsed in petri dish with sterile PBS to remove ethanol and fur. The tumor was transferred to a new petri dish with PBS for dissection. The dish is placed on ice. • 4. Pre-chilled sterile pipet tips were used to seed regular Matrigel in 24 well plates on ice. Matrigel (30 μl) was dropped in the middle of each well without touching the edge of the well (avoid introducing bubbles if possible). • 5. The tumor was cut in halves using the sterile blade. Healthy tumor tissue that is not necrotic and is within the tumor capsule was identified and isolated. The healthy tumor tissue was cut into small pieces. For instance, a suitable size for the tumor tissue is 0.5 mm (H)×0.5 mm (L)×0.3 mm (D) with a total volume of 0.075 mm^3. • 6. Each tumor piece was gently transferred and embedded in the Matrigel drop in the 24-well plate. The embedded piece was placed in the bottom and middle of each Matrigel drop. The plate was kept on ice all the time. • 7. After seeding the tumor pieces, plates were incubated in a 37° C. cell culture incubator without medium for 10 minutes in order for the Matrigel to solidify. • 8. Endothelial Growth Medium (0.5 ml) was added to each well and incubated at 37° C. with 5% CO2. Treatment was not added until the new endothelial cells was grown out of the tumor or were larger than 3 mm in diameter. This usually takes 4 days for the LL2 Lewis lung cancer model and 7 days for the CT26 colon cancer model. For human tumor models, the growth time is typically 2-3 weeks, depending on the tumor type. Media was changed every 4 days during prolonged culture. Typically, when the tumor tissue grows to 2 mm in diameter, it was good for drug testing. A size of about 3 mm in diameter can make visualization easier. • 9. When the assay was ready to be analyzed for cell death (e.g., 48 hours after drug addition), the dye mixture was prepared by mixing 6 μl of green dye to stain live cells (5 mg/ml Fluorescein diacetate or FDA in DMSO) with 30 μl of red dye (2.5 mg/ml Propidium iodide or PI in PBS) to stain dead cells in an Eppendorf tube. The FDA dye needs to be stored frozen in a −20° C. freezer because it has a labile ester bond. • 10. 1 μl of the dye mixture was added to each well of the 24-well dish. It is usually preferred to do one 24-well dish at a time given the amount of time needed to take pictures (the green dye is not as stable in the cells in the long term). • 11. The dish was gently rocked a few times to mix the dye with the media in the wells and incubate the dish at 37° C. for 10 min (too long incubation can make the green signal too intense). • 12. Each well was washed with 0.5 ml of sterile PBS and then 0.5 ml of phenol red free SFM was added to each well. Alternatively 0.5 ml of regular Endothelial Cell Growth Media can be added to each well if this well needs to be continuously maintained after the experiment. • 13. An inverted microscope using the 2× objective lens was used to observe morphological changes in the experimental wells. • 14. […]

Setting [3] is: Mus musculus, Endothelial cell, 48 h, read-out: Cell death.

Turning to `CCCCOc1ccc(S(=O)(=O)c2cnc3ccc([S+](C)[O-])cc3c2N2CCCN(CCN3CCCCC3)CC2)cc1` (centres unmarked) [Compound 209], in test [1] (40 μm), the “48 hrs (morphology observations)” value is “* (50% or less of cells vesicularize in cell shape)” and the Cell death was determined as 60%. Also, in test [2] (Conc. 40 μm), the “48 hrs (morphology observations after 48 hours)” value is “*** (100% of endothelial cells vesicularize in cell shape)”. For the same molecule, the cytotoxicity at 40 µM in test [2] was 90%.
On to `CCCCCCCOc1ccc(S(=O)(=O)c2cnc3ccc([S+](C)[O-])cc3c2N2CCCN(C)CC2)cc1` (centres unmarked) [Compound 220], for which the “48 hrs (morphology observations)” value in test [1] (40 μm) is “**** (100% of endothelial cells vesicularize in cell shape and look flattened in morphology (indicating disintegration of the cell body))”. Moreover, the cytotoxicity at 40 µM in test [1] (setting [3]) and in test [2] was 100% throughout. Moreover, in test [2] (Conc. 40 μm), the “48 hrs (morphology observations after 48 hours)” value is “**** (100% of endothelial cells vesicularize in cell shape and look flattened in morphology (indicating disintegration of the cell body))”.
For `CCCCOc1ccc(S(=O)(=O)c2cnc3ccc(SC)cc3c2N2CCC(N3CCC(O)CC3)CC2)cc1` [Compound 162], in test [1] (40 μm), the “48 hrs (morphology observations)” value is reported as “*** (more than 50% but less than 100% of endothelial cells vesicularize in cell shape)” and the Cell death came out at 70%. For the same molecule, the “48 hrs (morphology observations after 48 hours)” value in test [2] (Conc. 40 μm) is listed as “*** (100% of endothelial cells vesicularize in cell shape)”.
Turning to `CCCCOc1ccc(S(=O)(=O)c2cnc3ccc([S+](C)[O-])cc3c2N2CCC(N3CCC(O)(c4ccccc4)CC3)CC2)cc1` (centres unmarked) [Compound 238], the “48 hrs (morphology observations)” value in test [1] (40 μm) is on record as “*** (more than 50% but less than 100% of endothelial cells vesicularize in cell shape)”. Besides, the “48 hrs (morphology observations after 48 hours)” value in test [2] (Conc. 10 μm) is on record as 0. Moreover, the cytotoxicity at 10 µM in test [2] turned out to be 10%.
For `CCCCOc1ccc(S(=O)(=O)c2cnc3ccc(SC)cc3c2N2CCCN(CCN3CCCCC3)CC2)cc1` [Compound 206], in test [1] (20 μm), the “48 hrs (morphology observations)” value amounted to 0 and the Cell death was 30%. The “48 hrs (morphology observations after 48 hours)” value in test [2] (Conc. 40 μm) is “**** (100% of endothelial cells vesicularize in cell shape and look flattened in morphology (indicating disintegration of the cell body))”. Further, the cytotoxicity at 40 µM in test [2] is 100%.
For the molecule `CCCCOc1ccc(S(=O)(=O)c2cnc3ccc(C(=O)OCC)cc3c2N2CCC(N3CCOCC3)CC2)cc1` [Compound 212], in test [1] (40 μm), the Cell death is on record as 50%. In addition, the “48 hrs (morphology observations after 48 hours)” value in test [2] (Conc. 40 μm) turned out to be 0. In addition, in test [2], the cytotoxicity at 40 µM came to 10%.
As for `CCCCOc1ccc(S(=O)(=O)c2cnc3ccc(C(=O)N(CC)CC)cc3c2N2CCC(N3CCCCC3)CC2)cc1` [Compound 201], in test [1] (40 μm), the “48 hrs (morphology observations)” value is on record as 0 and the Cell death is 30%. Also, in test [2] (Conc. 40 μm), the “48 hrs (morphology observations after 48 hours)” value is given as “* (50% or less of cells vesicularize in cell shape)”. Besides, the cytotoxicity at 40 µM in test [2] is 10%.
On to `CCc1ccc(S(=O)(=O)c2cnc3ccc(OC(F)(F)F)cc3c2N2CCCN(CC(=O)O)CC2)cc1` [Compound 42], for which, in test [1] (40 μm), the Cell death was found to be 30%. In addition, in test [2] (Conc. 40 μm), the “48 hrs (morphology observations after 48 hours)” value came to 0. In test [2], the cytotoxicity at 40 µM came to 0%.
In the case of `COc1ccc(S(=O)(=O)c2cnc3ccc(CC#N)cc3c2NN2CCN(C)CC2)cc1` [Compound 99], the Cell death in test [1] (40 μm) amounted to 10%. Also, the “48 hrs (morphology observations after 48 hours)” value in test [2] (Conc. 40 μm) worked out at 0. In addition, the cytotoxicity at 40 µM in test [2] stood at 0%.
Consider `COc1ccc(S(=O)(=O)c2cnc3ccc(OC(F)(F)F)cc3c2NN2CCN(C)CC2)cc1` [Compound 85], for which the Cell death in test [1] (40 μm) came out at 80%. Also, the “48 hrs (morphology observations after 48 hours)” value in test [2] (Conc. 40 μm) is given as 0. Besides, the cytotoxicity at 40 µM in test [2] worked out at 50%.
As for `COc1ccc(S(=O)(=O)c2cnc3ccc(OC(F)(F)F)cc3c2N2CCCN(C)CC2)cc1OC` [Compound 57], in test [1] (40 μm), the “48 hrs (morphology observations)” value was 0 and the Cell death is 40%. Further, in test [2] (Conc. 40 μm), the “48 hrs (morphology observations after 48 hours)” value was “* (50% or less of cells vesicularize in cell shape)”. The cytotoxicity at 40 µM in test [2] came out at 60%.
As to `CCc1ccc(S(=O)(=O)c2cnc3ccc([N+](=O)[O-])cc3c2N(CC)CC)cc1` [Compound 78], the Cell death in test [1] (40 μm) was 40%. Further, the “48 hrs (morphology observations after 48 hours)” value in test [2] (Conc. 40 μm) was 0. Moreover, the cytotoxicity at 40 µM in test [2] was 0%.
For the molecule `CCN(CC)c1c(S(=O)(=O)c2ccc(OC)c(OC)c2)cnc2ccc(OC(F)(F)F)cc12` [Compound 68], in test [1] (40 μm), the “48 hrs (morphology observations)” value is “*** (more than 50% but less than 100% of endothelial cells vesicularize in cell shape)” and the Cell death is given as 80%. Besides, the “48 hrs (morphology observations after 48 hours)” value in test [2] (Conc. 40 μm) is on record as “** (more than 50% but less than 100% of endothelial cells vesicularize in cell shape)”. In test [2], the cytotoxicity at 40 µM amounted to 50%.
On to `CCCCOc1ccc(S(=O)(=O)c2cnc3ccc(OC(F)(F)F)cc3c2-n2cncn2)cc1` [Compound 93], for which the “48 hrs (morphology observations)” value in test [1] (20 μm) is reported as “*** (more than 50% but less than 100% of endothelial cells vesicularize in cell shape)”. The cytotoxicity at 20 µM in test [1] (setting [3]) is 100%. Besides, the “48 hrs (morphology observations after 48 hours)” value in test [2] (Conc. 10 μm) is listed as “*** (100% of endothelial cells vesicularize in cell shape)”. Also, in test [2], the cytotoxicity at 10 µM was 100%.
Turning to `CCc1ccc(S(=O)(=O)c2cnc3ccc(OC(F)(F)F)cc3c2-n2ccnn2)cc1` [Compound 110], in test [1] (20 μm), the “48 hrs (morphology observations)” value was “*** (more than 50% but less than 100% of endothelial cells vesicularize in cell shape)” and the Cell death was 95%. Further, the “48 hrs (morphology observations after 48 hours)” value in test [2] (Conc. 40 μm) is “** (more than 50% but less than 100% of endothelial cells vesicularize in cell shape)”. For the same molecule, the cytotoxicity at 40 µM in test [2] was found to be 10%.
Regarding `CCCCOc1ccc(S(=O)(=O)c2cnc3ccc(C(=O)OCC)cc3c2N2CCC(N3CCC(O)CC3)CC2)cc1` [Compound 161], in test [1] (40 μm), the “48 hrs (morphology observations)” value is “**** (100% of endothelial cells vesicularize in cell shape and look flattened in morphology (indicating disintegration of the cell body))”; the Cell death came to 90%. In test [2] (Conc. 40 μm), the “48 hrs (morphology observations after 48 hours)” value was “**** (100% of endothelial cells vesicularize in cell shape and look flattened in morphology (indicating disintegration of the cell body))”. Also, in test [2], the cytotoxicity at 40 µM was 100%.
On to `CCCCCCCOc1ccc(S(=O)(=O)c2cnc3ccc([S+](C)[O-])cc3c2N2CCC(N3CCN(C)CC3)CC2)cc1` (centres unmarked) [Compound 253], for which, in test [1] (20 μm), the “48 hrs (morphology observations)” value was “**** (100% of endothelial cells vesicularize in cell shape and look flattened in morphology (indicating disintegration of the cell body))”; the Cell death came to 100%. The “48 hrs (morphology observations after 48 hours)” value in test [2] (Conc. 10 μm) is listed as “*** (100% of endothelial cells vesicularize in cell shape)”. Also, in test [2], the cytotoxicity at 10 µM was 80%.
`CCCCCCCOc1ccc(S(=O)(=O)c2cnc3ccc([S+](C)[O-])cc3c2N2CCC(N3CCC(N4CCCCC4)CC3)CC2)cc1` (centres unmarked) [Compound 258]: the “48 hrs (morphology observations)” value in test [1] (20 μm) was “**** (100% of endothelial cells vesicularize in cell shape and look flattened in morphology (indicating disintegration of the cell body))”. Besides, the cytotoxicity at 20 µM in test [1] (setting [3]) amounted to 100%. The “48 hrs (morphology observations after 48 hours)” value in test [2] (Conc. 10 μm) was “*** (100% of endothelial cells vesicularize in cell shape)”. The cytotoxicity at 10 µM in test [2] is 100%.
